Results from paper PMC6792352, “Limited Chemical Structural Diversity Found to Modulate Thyroid Hormone Receptor in the Tox21 Chemical Library” (Environmental Health Perspectives, 2019).
Structures can show the parent of a compound that is named as a salt.

Test: in vitro
Settings: rat, gh3-tre-luc cells, AC50 (uM) modified / 1000

Point of comparison: `O=C1c2c(O)ccc(Nc3ccc(CCO)cc3)c2C(=O)c2c([N+](=O)[O-])ccc(O)c21` [C.I. Disperse Blue 27], CC50 at 24 h 63.1 µM. Against it:
- O=C1OC(=O)c2cc(-c3ccc4c(c3)C(=O)OC4=O)ccc21 [5,5'-Bi-2-benzofuran-1,1',3,3'-tetrone] — higher, > 90 µM
- CCCCCCCCCCCC[n+]1ccc2ccccc2c1 [2-Dodecylisoquinolinium tosylate] — 11-fold lower, 5.61 µM
- O=C(O)c1ccc(OCCCOc2ccc(C(=O)O)cc2)cc1 [1,3-Bis(4-carboxyphenoxy)propane] — not separable, > 50 µM
- CC(C)=CCCC(C)CC=O (stereo not drawn) [Citronellal] — higher, > 90 µM
- CC1OCCC1=O (stereo not drawn) [2-Methyldihydrofuran-3(2H)-one] — higher, > 90 µM
- CCCC(C)C [2-Methylpentane] — higher, > 90 µM
- C=C(C)C(=O)OCCOc1ccccc1 [Ethylene glycol phenyl ether methacrylate] — higher, > 90 µM
- CCCCC(CC)COC(=O)C(C#N)=C(c1ccccc1)c1ccccc1 (stereo not drawn) [2-Ethylhexyl-2-cyano-3,3-diphenylacrylate] — higher, > 90 µM
- C=CCC1([C@H](C)CCC)C(=O)NC(=O)NC1=O [R-(+)-Secobarbital] — higher, > 90 µM
- CC(C(=O)O)c1ccc(C(=O)c2ccccc2)s1 (stereo not drawn) [Tiaprofenic acid] — not separable, > 20 µM
- CC(C)=CCC/C(C)=C\C#N [(2Z)-3,7-Dimethylocta-2,6-dienenitrile] — higher, > 90 µM
- COc1cc(O)c(C(=O)c2ccccc2)cc1S(=O)(=O)O [Sulisobenzone] — higher, > 90 µM
- Cc1cc(CCN2CCN(c3nsc4ccccc34)CC2)cc2c1NC(=O)CC2(C)C [PD 0343701] — within 1.5-fold, 46.9 µM
- CC(C)(C1CCC(O)CC1)C1CCC(O)CC1 (stereo not drawn) [4,4'-Propane-2,2-diyldicyclohexanol] — higher, > 90 µM
- CC(=O)Oc1ccc(C2(c3ccc(OC(C)=O)cc3)C(=O)Nc3ccccc32)cc1 [Oxyphenisatin acetate] — not separable, > 50 µM
- CN1CCC(O)(c2ccc(F)cc2)C(C(=O)c2ccc(F)cc2)C1 (stereo not drawn) [Flazalone] — 3.2-fold lower, 19.6 µM
- CCCCCOC(=O)CCC [Pentyl butyrate] — higher, > 90 µM
- Cc1cc(C)cc(N)c1 [3,5-Dimethylaniline] — higher, > 90 µM
- COc1cc(C=O)ccc1O [4-Hydroxy-3-methoxybenzaldehyde] — not separable, > 50 µM
- CC(=O)CC(C)(C)C1CCCCC1 [4-Cyclohexyl-4-methyl-pentan-2-one] — higher, > 90 µM
- O=[N+]([O-])c1ccc2[nH]ncc2c1 [5-Nitroindazole] — higher, > 90 µM
- CC(C)CC(=O)C1C(=O)c2ccccc2C1=O [2-Isovaleryl-1,3-indanedione] — higher, > 90 µM
- CCCOc1sc(C(=O)N2CCC(c3cc(CN)ccc3F)CC2)c(C)c1Br [AVE8923] — 18-fold lower, 3.52 µM
- CC(C)=CCC/C(C)=C/C=N/O [Citral oxime] — higher, > 90 µM
- CCCOCCO [2-Propoxyethanol] — higher, > 90 µM
- CCCCCCC1CCCC(=O)O1 (stereo not drawn) [Undecanoic delta-lactone] — higher, > 90 µM
- COc1cc(NS(=O)(=O)c2ccc(N)cc2)nc(OC)n1 [Sulfadimethoxine] — not separable, > 20 µM
- CC(C)C1OCCN1CCOC(=O)NCCCCCCNC(=O)OCCN1CCOC1C(C)C (stereo not drawn) [Bis{2-[2-(propan-2-yl)-1,3-oxazolidin-3-yl]ethyl} hexane-1,6-diylbiscarbamate] — higher, > 90 µM
- CC(=O)Oc1cc2c(s1)CCN(C(C(=O)C1CC1)c1ccccc1F)C2 (stereo not drawn) [Prasugrel hydrochloride] — not separable, > 50 µM
- CC(=O)NCc1c(I)c(NC(C)=O)c(I)c(C(=O)O)c1I [Iodamide] — not separable, > 50 µM
- Nc1ccn([C@@H]2O[C@H](CO)[C@@H](O)C2(F)F)c(=O)n1 [Gemcitabine hydrochloride] — 410-fold lower, 0.153 µM
- CCCCC(CC)COC(=O)COc1ccc(Cl)cc1C (stereo not drawn) [MCPA-2-ethylhexyl] — higher, > 90 µM
- CC1=C(/C=C/C(C)=C/C=C/C(C)=C/C=C/C=C(C)/C=C/C=C(C)/C=C/C2=C(C)C(=O)CCC2(C)C)C(C)(C)CCC1=O [Canthaxanthin] — not separable, > 50 µM
- CC(CN(C)C)C(C)(O)Cc1ccc(Cl)cc1 (stereo not drawn) [Clobutinol hydrochloride] — not separable, > 50 µM
- CCc1cnc(C(=O)O)c(C(=O)O)c1 [5-Ethyl-2,3-pyridinedicarboxylic acid] — higher, > 100 µM
- CCO[Si](CCC#N)(OCC)OCC [3-(Triethoxysilyl)propionitrile] — higher, > 90 µM
- OCCCCC(O)CO (stereo not drawn) [1,2,6-Hexanetriol] — higher, > 90 µM
- CCNc1nc(N)nc(Cl)n1 [Deisopropylatrazine] — higher, > 90 µM
- C=CCOCC(CO)(CO)CO [Pentaerythritol allyl ether] — not separable, > 60 µM
- Nc1nc(N)c2nc(-c3ccccc3)c(N)nc2n1 [Triamterene] — higher, > 90 µM
- Clc1cccc(SC2CCNCC2)n1 [Anpirtoline] — not separable, > 50 µM
- COc1ccc(C2C(=O)c3ccccc3C2=O)cc1 [Anisindione] — not separable, > 50 µM
- NC(=O)CN1CC(O)CC1=O (stereo not drawn) [Oxiracetam] — not separable, > 50 µM
- CC(O)COC(C)COC(C)CO (stereo not drawn) [Tripropylene glycol] — higher, > 90 µM
- O=Cc1cccc(Br)c1 [3-Bromobenzaldehyde] — higher, > 90 µM
- CSC(=O)c1cccc2nnsc12 [Acibenzolar-S-methyl] — higher, > 90 µM
- COc1cc(C[C@H](C)N)c(OC)cc1Br [S-(+)-2,5-Dimethoxy-4-bromoamphetamine hydrochloride] — within 1.5-fold, 61.8 µM
- O=C(OCC1(COC(=O)c2cccnc2)CCCC(COC(=O)c2cccnc2)(COC(=O)c2cccnc2)C1O)c1cccnc1 [Nicomolol] — not separable, > 50 µM
- CCCCC1CCC(O)CC1 (stereo not drawn) [4-Butylcyclohexanol] — higher, > 90 µM
- CN[C@H]1C[C@@H](N)[C@H](O)[C@@H](O[C@@H]2O[C@H](CO)[C@H](O)[C@@H]3OC4(O[C@H]23)O[C@H]([C@@H](N)CO)[C@H](O)[C@H](O)[C@H]4O)[C@@H]1O (stereo partly drawn) [Hygromycin B] — not separable, > 50 µM
- COC(=O)[C@H](c1ccccc1Cl)N1CCc2sccc2C1 [Clopidogrel hydrogen sulfate] — not separable, > 50 µM
- C[C@@H](O)[C@H]1C(=O)N2C(C(=O)O)=C(SCCN=CN)C[C@H]12 [Imipenem] — not separable, > 20 µM
- Nc1nc(CC(=O)O)cs1 [2-Amino-4-thiazoleacetic acid] — higher, > 90 µM

Same assay, conditions: rat, gh3-tre-luc cells, AC50 (uM) modified / 1000, Tox21_110001=Tox21_112294; viability, 1 nM T3 present, 24 h

`C#CC(C)(O)CC` (stereo not drawn) [3-Methyl-1-pentyn-3-ol] showed a CC50 at 24 h greater than 50 µM.

Same assay, conditions: rat, gh3-tre-luc cells, AC50 (uM) modified / 1000, Tox21_110001=Tox21_112671; viability, 1 nM T3 present, 24 h

Work on `C[C@]12CC[C@H](O)C[C@H]1CC[C@@H]1[C@@H]2CC[C@]2(C)[C@@H](c3ccc(=O)oc3)C[C@H]3O[C@]132` [Bufogenin] yielded a CC50 at 24 h greater than 50 µM.

Same assay, conditions: rat, gh3-tre-luc cells, AC50 (uM) modified / 1000, Tox21_110001=Tox21_113158; viability, 1 nM T3 present, 24 h

Compound `C[C@]1(O)CC[C@H]2[C@@H]3CCC4=CC(=O)CC[C@]4(C)[C@@]3(F)[C@@H](O)C[C@@]21C` [Fluoxymestrone] has a CC50 at 24 h greater than 50 µM.

Same assay, conditions: rat, gh3-tre-luc cells, AC50 (uM) modified / 1000, Tox21_110001=Tox21_200260; viability, 1 nM T3 present, 24 h

`Cc1ccc2cc(C)ccc2c1` [2,6-Dimethylnaphthalene] gave a CC50 at 24 h greater than 90 µM.

Same assay, conditions: rat, gh3-tre-luc cells, AC50 (uM) modified / 1000, Tox21_110001=Tox21_200854; viability, 1 nM T3 present, 24 h

In the case of `C[C@]1(O)CC[C@H]2[C@@H]3CCC4=CC(=O)CC[C@]4(C)[C@@]3(F)[C@@H](O)C[C@@]21C` [Fluoxymestrone], the CC50 at 24 h is reported as greater than 90 µM.

Same assay, conditions: rat, gh3-tre-luc cells, AC50 (uM) modified / 1000, Tox21_110001=Tox21_200937; viability, 1 nM T3 present, 24 h

Compound `O=[N+]([O-])c1cc(Cl)c(Cl)cc1Cl` [2,4,5-Trichloronitrobenzene] has a CC50 at 24 h greater than 90 µM.

Same assay, conditions: rat, gh3-tre-luc cells, AC50 (uM) modified / 1000, Tox21_110001=Tox21_201319; viability, 1 nM T3 present, 24 h

For `Cc1cc(Cl)ccc1OCCCC(=O)O` [MCPB], the CC50 at 24 h was greater than 100 µM.

Same assay, conditions: rat, gh3-tre-luc cells, AC50 (uM) modified / 1000, Tox21_110001=Tox21_202080; viability, 1 nM T3 present, 24 h

`CC(=O)C=C(C)C` [4-Methylpent-3-en-2-one] gave a CC50 at 24 h greater than 100 µM.

Same assay, conditions: rat, gh3-tre-luc cells, AC50 (uM) modified / 1000, Tox21_110001=Tox21_202980; viability, 1 nM T3 present, 24 h

Compound `CC(C)(C)c1ccccc1OP(=O)(Oc1ccccc1)Oc1ccccc1` [tert-Butylphenyl diphenyl phosphate] has a CC50 at 24 h greater than 90 µM.

Same assay, conditions: rat, gh3-tre-luc cells, AC50 (uM) modified / 1000, Tox21_110001=Tox21_301029; viability, 1 nM T3 present, 24 h

Compound `CCCCOC(=O)[C@@H](C)Oc1ccc(Oc2ccc(C#N)cc2F)cc1` [Cyhalofop-butyl] has a CC50 at 24 h greater than 90 µM.

Same assay, conditions: rat, gh3-tre-luc cells, AC50 (uM) modified / 1000, Tox21_110001=Tox21_303338; viability, 1 nM T3 present, 24 h

With `Cc1cc(Cl)ccc1OCCCC(=O)O` [MCPB] the CC50 at 24 h was greater than 90 µM.

Same assay, conditions: rat, gh3-tre-luc cells, AC50 (uM) modified / 1000, Tox21_110001=Tox21_303606; viability, 1 nM T3 present, 24 h

`CC(=O)C=C(C)C` [4-Methylpent-3-en-2-one] gave a CC50 at 24 h greater than 90 µM.
